Source: patent US10785979B2, “Substituted ketoxime benzoylamides” (Bayer CropScience Aktiengesellschaft, priority 2015, dated 2020)

Tests used:
different harmful plants [1] = assay: Pre-emergence comparative tests versus known compounds from WO 2013/064459 A1 (D1); type: in vivo; conditions: visual scoring after 3 weeks; for Herbicidal efficacy against AVEFA: Avena fatua; for Herbicidal efficacy against CYPES: Cyperus esculentus; for Herbicidal efficacy against VIOTR: Viola tricolor; for Herbicidal efficacy against STEME: Stellaria media; for Herbicidal efficacy against ECHCG: Echinochloa crus galli; for Herbicidal efficacy against POLCO: Polygonum convolvulus
From the text: Seeds of monocotyledonous and dicotyledonous weed plants and crop plants are laid out in wood-fiber pots in sandy loam and covered with soil. The compounds of the invention, formulated in the form of wettable powders (WP) or as emulsion concentrates (EC), are then applied to the surface of the covering soil in the form of an aqueous suspension or emulsion at a water application rate equating to 600 to 800 I/ha, with addition of 0.2% wetting agent. After the treatment, the pots are placed in a greenhouse and kept under good growth conditions for the trial plants. The damage to the test plants is scored visually after a test period of 3 weeks by comparison with untreated controls (herbicidal activity in percent (%): 100% activity=the plants have died, 0% activity=like control plants). In this case, for example, compound Nos. 1-15, 1-71, 1-74, 2-15, 2-19, 2-67, 2-71, 2-74, 2-136, 3-15, 3-19, 4-74, 5-15, 5-67, 5-71, 5-74, 6-15, 6-19, 6-67, 6-71, 6-74, 7-15, 7-19, 7-71, 7-74, 8-1, 8-25, 9-5, 9-25, 10-5 and 12-25, at an application rate of 320 g/ha, each show at least 80% efficacy against Abutilon theophrasti and Veronica persica.
(§1) 3. Comparative Experiments
(§2) In addition, comparative tests were conducted under the conditions specified above on different harmful plants between inventive compounds and the most structurally similar known compounds from WO 2013/064459 A1 (D1). The results listed in the tables which follow show the superiority of these compounds of the invention.
(§3) The abbreviations used here mean:
Pre-Emergence Comparative Tests

different harmful plants [2] = assay: Post-emergence comparative tests versus known compounds from WO 2013/064459 A1 (D1); type: in vivo; conditions: visual assessment after about 3 weeks; for Herbicidal efficacy against MATIN: Matricaria inodora; for Herbicidal efficacy against VIOTR: Viola tricolor; for Herbicidal efficacy against ALOMY: Alopecurus myosuroides
Description: Seeds of monocotyledonous and dicotyledonous weed and crop plants are laid out in sandy loam soil in wood-fiber pots, covered with soil and cultivated in a greenhouse under good growth conditions. 2 to 3 weeks after sowing, the test plants are treated at the one-leaf stage. The compounds of the invention, formulated in the form of wettable powders (WP) or as emulsion concentrates (EC), are then sprayed onto the green parts of the plants in the form of an aqueous suspension or emulsion at a water application rate equating to 600 to 800 I/ha, with addition of 0.2% wetting agent. After the test plants have been left to stand in the greenhouse under optimal growth conditions for about 3 weeks, the action of the preparations is assessed visually in comparison to untreated controls (herbicidal action in percent (%): 100% activity=the plants have died, 0% activity=like control plants). In this case, for example, compound Nos. 1-15, 1-71, 1-74, 2-15, 2-19, 2-67, 2-71, 2-74, 2-136, 3-15, 3-19, 4-19, 4-136, 5-15, 7-15, 7-19, 7-74, 8-1, 8-25, 8-26, 9-5, 9-25, 10-5 and 10-5, at an application rate of 80 g/ha, each show at least 80% efficacy against Abutilon theophrasti and Veronica persica.
as §1, §2, §3
Post-Emergence Comparative Tests

| SMILES | Herbicidal efficacy against AVEFA (different harmful plants [1]; 320 g a.i./ha) [%] | Herbicidal efficacy against VIOTR (different harmful plants [1]; 320 g a.i./ha) [%] | Herbicidal efficacy against MATIN (different harmful plants [2]; 80 g a.i./ha) [%] | Herbicidal efficacy against VIOTR (different harmful plants [2]; 80 g a.i./ha) [%] | other results |
| --- | --- | --- | --- | --- | --- |
| CCON=C(C)c1c(Cl)ccc(C(=O)Nc2nnnn2C)c1Cl (single isomer, unassigned) [1-5] | 90 | 100 |  |  | Herbicidal efficacy against CYPES (different harmful plants [1]; 320 g a.i./ha): 90%; Herbicidal efficacy against MATIN (different harmful plants [2]; 20 g a.i./ha): 90%; Herbicidal efficacy against VIOTR (different harmful plants [2]; 20 g a.i./ha): 90% |
| CC(=NOCC1CC1)c1c(Cl)ccc(C(=O)Nc2nnnn2C)c1Cl (single isomer, unassigned) [1-8] | 90 | 100 | 100 |  | Herbicidal efficacy against STEME (different harmful plants [1]; 320 g a.i./ha): 100%; Herbicidal efficacy against ALOMY (different harmful plants [2]; 80 g a.i./ha): 70% |
| CCn1nnnc1NC(=O)c1ccc(Cl)c(C(C)=NOC)c1Cl (single isomer, unassigned) [2-1] | 100 | 100 |  | 100 | Herbicidal efficacy against CYPES (different harmful plants [1]; 320 g a.i./ha): 100%; Herbicidal efficacy against ALOMY (different harmful plants [2]; 80 g a.i./ha): 60% |
| CCCn1nnnc1NC(=O)c1ccc(Cl)c(C(C)=NOC)c1Cl (single isomer, unassigned) [3-1] | 80 | 100 |  |  | Herbicidal efficacy against CYPES (different harmful plants [1]; 320 g a.i./ha): 100%; Herbicidal efficacy against MATIN (different harmful plants [2]; 20 g a.i./ha): 80%; Herbicidal efficacy against VIOTR (different harmful plants [2]; 20 g a.i./ha): 100% |
| CCCn1nnnc1NC(=O)c1ccc(Cl)c(C(C)=NOCC)c1Cl (single isomer, unassigned) [3-5] | 70 | 100 | 90 | 100 | Herbicidal efficacy against STEME (different harmful plants [1]; 320 g a.i./ha): 100% |
| CCCn1nnnc1NC(=O)c1ccc(Cl)c(C(C)=NOCC2CC2)c1Cl (single isomer, unassigned) [3-8] |  |  | 70 | 80 |  |
| CCCn1nnnc1NC(=O)c1ccc(S(C)(=O)=O)c(C(C)=NOC)c1Cl (single isomer, unassigned) [3-15] |  |  |  |  | Herbicidal efficacy against MATIN (different harmful plants [2]; 20 g a.i./ha): 90%; Herbicidal efficacy against VIOTR (different harmful plants [2]; 20 g a.i./ha): 90% |
| CCCn1nnnc1NC(=O)c1ccc(S(C)(=O)=O)c(C(C)=NOCC)c1Cl (single isomer, unassigned) [3-19] |  |  |  | 100 | Herbicidal efficacy against CYPES (different harmful plants [1]; 80 g a.i./ha): 80%; Herbicidal efficacy against ECHCG (different harmful plants [1]; 80 g a.i./ha): 90%; Herbicidal efficacy against VIOTR (different harmful plants [1]; 80 g a.i./ha): 100%; Herbicidal efficacy against ALOMY (different harmful plants [2]; 80 g a.i./ha): 50% |
| CCON=C(C)c1c(Cl)ccc(C(=O)Nc2ncnn2C)c1Cl (single isomer, unassigned) [4-5] |  | 100 |  | 90 | Herbicidal efficacy against ECHCG (different harmful plants [1]; 320 g a.i./ha): 90%; Herbicidal efficacy against STEME (different harmful plants [1]; 320 g a.i./ha): 80%; Herbicidal efficacy against ALOMY (different harmful plants [2]; 80 g a.i./ha): 30% |
| CCON=C(C)c1c(S(C)(=O)=O)ccc(C(=O)Nc2ncnn2C)c1Cl (single isomer, unassigned) [4-19] |  |  |  |  | Herbicidal efficacy against ALOMY (different harmful plants [2]; 20 g a.i./ha): 80%; Herbicidal efficacy against VIOTR (different harmful plants [2]; 20 g a.i./ha): 100% |
| CON=C(C)c1c(Cl)ccc(C(=O)Nc2nonc2C)c1Cl (single isomer, unassigned) [6-1] |  |  |  |  | Herbicidal efficacy against ECHCG (different harmful plants [1]; 320 g a.i./ha): 60%; Herbicidal efficacy against POLCO (different harmful plants [1]; 320 g a.i./ha): 40%; Herbicidal efficacy against STEME (different harmful plants [1]; 320 g a.i./ha): 60% |
| CON=C(C)c1c(S(C)(=O)=O)ccc(C(=O)Nc2nonc2C)c1Cl (single isomer, unassigned) [6-15] |  |  | 80 | 100 |  |
| CCON=C(C)c1c(S(C)(=O)=O)ccc(C(=O)Nc2nonc2C)c1Cl (single isomer, unassigned) [6-19] | 30 | 100 | 70 | 100 | Herbicidal efficacy against CYPES (different harmful plants [1]; 320 g a.i./ha): 80% |
| CCCn1nnnc1NC(=O)c1ccc(S(C)(=O)=O)c(C(C)=NOC)c1Cl (single isomer, unassigned) [10-5] |  |  | 100 |  | Herbicidal efficacy against ALOMY (different harmful plants [2]; 80 g a.i./ha): 60% |
| CCCn1nnnc1NC(=O)c1ccc(S(C)(=O)=O)c(C(C)=NOCC)c1Cl (single isomer, unassigned) [10-6] | 40 | 100 |  |  | Herbicidal efficacy against POLCO (different harmful plants [1]; 320 g a.i./ha): 60%; Herbicidal efficacy against MATIN (different harmful plants [2]; 20 g a.i./ha): 90%; Herbicidal efficacy against VIOTR (different harmful plants [2]; 20 g a.i./ha): 100% |
| CON=C(C)c1c(S(C)(=O)=O)ccc(C(=O)Nc2nonc2C)c1Cl (single isomer, unassigned) [13-5] |  |  | 60 | 90 |  |
| CCON=C(C)c1c(S(C)(=O)=O)ccc(C(=O)Nc2nonc2C)c1Cl (single isomer, unassigned) [13-6] | 60 | 100 | 60 | 100 | Herbicidal efficacy against CYPES (different harmful plants [1]; 320 g a.i./ha): 60% |
